Columns and labels:
HCC827 = assay: cells; conditions: Homo sapiens, HCC827, 72 h
Description: Antiproliferative activity against human HCC827 cells harboring EGFR L858R mutant after 72 hrs by CCK8 assay

NCI-H1975 [1] = assay: cells; conditions: Homo sapiens, NCI-H1975, 72 h
Description: Antiproliferative activity against human NCI-H1975 cells harboring EGFR T790M mutant after 72 hrs by CCK8 assay

A-431 = assay: cells; conditions: Homo sapiens, A-431, 72 h
Description: Antiproliferative activity against human A431 cells harboring wild-type EGFR after 72 hrs by CCK8 assay

MDA-MB-453 = assay: Antiproliferative activity against human MDA-MB-453 cells after 72 hrs by CCK8 assay; type: functional, cell-based; conditions: MDA-MB-453, 72 h
NCI-H1975 [2] = assay: Antitumor activity against human NCI-H1975 cells harboring EGFR T790M mutant xenografted in BALB/c mouse assessed as tumor growth inhibition at 80 mg/kg, po administered every other day via gavage for 14 days measured at 7 days post last dose relative to control; type: functional
NCI-H1975 [3] = assay: Antitumor activity against human NCI-H1975 cells harboring EGFR T790M mutant xenografted in BALB/c mouse assessed as tumor growth inhibition at 5 mg/kg, po administered daily via gavage for 14 days measured at 7 days post last dose relative to control; type: functional
[4] = Oral bioavailability in Sprague-Dawley rat at 10 mg/kg; type: ADME, organism-based; conditions: in vivo
[5] = Half life in Sprague-Dawley rat at 5 mg/kg, iv or 10 mg/kg, po; type: ADME, organism-based; conditions: in vivo
[6] = molecular target: Epidermal growth factor receptor (Homo sapiens, UniProt P00533); assay: Inhibition of recombinant human GST-tagged EGFR catalytic domain (668 to 1210 residues) expressed in baculovirus expression system using TK-biotin peptide as substrate measured after 10 mins by HTRF assay
Sequence of Epidermal growth factor receptor (P00533 whole entry, the tested form may be a part): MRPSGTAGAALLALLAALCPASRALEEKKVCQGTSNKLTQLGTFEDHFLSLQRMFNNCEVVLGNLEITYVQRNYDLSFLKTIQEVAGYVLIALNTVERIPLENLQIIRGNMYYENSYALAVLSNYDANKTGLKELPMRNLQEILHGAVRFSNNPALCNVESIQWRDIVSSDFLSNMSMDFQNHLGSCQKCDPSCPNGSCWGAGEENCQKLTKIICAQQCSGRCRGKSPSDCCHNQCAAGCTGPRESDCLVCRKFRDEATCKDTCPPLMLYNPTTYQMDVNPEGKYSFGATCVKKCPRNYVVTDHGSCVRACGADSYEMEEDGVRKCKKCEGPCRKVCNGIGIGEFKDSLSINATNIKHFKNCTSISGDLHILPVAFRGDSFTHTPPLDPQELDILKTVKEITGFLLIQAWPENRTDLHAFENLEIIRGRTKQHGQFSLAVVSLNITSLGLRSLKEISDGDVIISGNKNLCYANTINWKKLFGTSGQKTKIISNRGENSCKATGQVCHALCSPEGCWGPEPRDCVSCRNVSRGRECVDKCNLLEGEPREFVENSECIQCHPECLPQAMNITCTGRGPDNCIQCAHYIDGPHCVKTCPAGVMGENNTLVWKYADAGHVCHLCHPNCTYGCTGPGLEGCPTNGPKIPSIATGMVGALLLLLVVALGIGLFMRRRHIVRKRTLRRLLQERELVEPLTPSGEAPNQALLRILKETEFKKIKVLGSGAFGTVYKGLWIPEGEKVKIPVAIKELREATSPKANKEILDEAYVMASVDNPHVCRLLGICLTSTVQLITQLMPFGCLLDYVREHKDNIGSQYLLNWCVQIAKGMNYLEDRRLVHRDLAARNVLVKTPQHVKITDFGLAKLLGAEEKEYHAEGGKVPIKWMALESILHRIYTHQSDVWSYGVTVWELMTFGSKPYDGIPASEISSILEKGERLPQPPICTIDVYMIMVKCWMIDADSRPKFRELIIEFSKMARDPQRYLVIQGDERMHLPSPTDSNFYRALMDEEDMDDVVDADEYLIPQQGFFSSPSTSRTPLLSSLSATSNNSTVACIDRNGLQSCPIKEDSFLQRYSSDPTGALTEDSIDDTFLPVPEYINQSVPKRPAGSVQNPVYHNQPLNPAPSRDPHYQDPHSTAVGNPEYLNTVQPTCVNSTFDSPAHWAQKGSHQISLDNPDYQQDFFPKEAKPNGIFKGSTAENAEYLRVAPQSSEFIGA

NCI-H1975 [7] = assay: Antitumor activity against human NCI-H1975 cells harboring EGFR T790M mutant xenografted in BALB/c mouse assessed as tumor growth inhibition at 20 mg/kg, po administered every other day via gavage for 14 days measured at 7 days post last dose relative to control; type: functional
[8] = Tmax in Sprague-Dawley rat at 5 mg/kg, iv or 10 mg/kg, po; type: ADME, organism-based; conditions: in vivo
[9] = Cmax in Sprague-Dawley rat at 5 mg/kg, iv or 10 mg/kg, po; type: ADME, organism-based; conditions: in vivo
NCI-H1975 [10] = assay: Antitumor activity against human NCI-H1975 cells harboring EGFR T790M mutant xenografted in BALB/c mouse assessed as tumor growth inhibition at 20 mg/kg, po administered daily via gavage for 14 days measured at 7 days post last dose relative to control; type: functional
NCI-H1975 [11] = assay: Antitumor activity against human NCI-H1975 cells harboring EGFR T790M mutant xenografted in po dosed BALB/c mouse assessed as tumor growth inhibition administered via gavage qd or qod for 14 days measured at 7 days post last dose; type: functional, organism-based

SMILES | IC50 (HCC827) [nM] | IC50 (NCI-H1975 [1]) [nM] | IC50 (A-431) [nM] | IC50 (MDA-MB-453) [nM] | also measured
CCOCCOc1cc2ncnc(Nc3ccc(F)c(Cl)c3)c2cc1NC(=O)/C=C/C(=O)OCC | 0.987 | 35.2 | 207 | 21.6 | 
C=C(Br)C(=O)Nc1cc2c(Nc3ccc(F)c(Cl)c3)ncnc2cc1OCCOCC | 6.39 | 39.4 | 572 | 15.1 | 
CCOCCOc1cc2ncnc(Nc3ccc(OCc4cccc(F)c4)c(Cl)c3)c2cc1NC(=O)/C=C/CN(C)C |  | 49.7 | 79.5 |  | 
CCOCCOc1cc2ncnc(Nc3ccc(NCCS(C)(=O)=O)c(Cl)c3)c2cc1NC(=O)/C=C/CN(C)C | 0.53 | 65.6 | 6.48 | 12.7 | 
C=CC(=O)Nc1cc2c(Nc3ccc(F)c(Cl)c3)ncnc2cc1OCCOCC | 0.15 | 51.8 | 6.01 | 5.67 | 
CCOCCOc1cc2ncnc(Nc3ccc(F)c(Cl)c3)c2cc1NC(=O)/C=C\C#N | 5.56 | 18.4 | 94.8 | 0.68 | 
CCOCCOc1cc2ncnc(Nc3ccc(F)c(Cl)c3)c2cc1NC(=O)/C=C/C(F)(F)F | 0.15 | 27.6 | 148 | 18.3 | 
CCOCCOc1cc2ncnc(Nc3ccc(F)c(Cl)c3)c2cc1NC(=O)/C=C/Br | 4.86 | 8.21 | 297 | 3.99 | 
C=CS(=O)(=O)Nc1cc2c(Nc3ccc(F)c(Cl)c3)ncnc2cc1OCCOCC | 3.95 | 13.7 | 3.37 | 130 | 
CCCOCCOc1cc2ncnc(Nc3ccc(F)c(Cl)c3)c2cc1NC(=O)/C=C/CN(C)C | 0.55 |  | 8.15 |  | 
CCOCCOc1cc2ncnc(Nc3ccc(F)c(Cl)c3)c2cc1NC(=O)/C=C/CN(C)C [listing 1 of 2 here] | 0.31 |  | 1.52 | 0.62 | inhibition in vivo at 80 mg/kg (NCI-H1975 [2]): 95.1%; inhibition in vivo at 5 mg/kg (NCI-H1975 [3]): 73.2%; bioavailability [4]: 46%; half-life [5]: 6.8 h; IC50 [6]: 0.69 nM; inhibition in vivo at 20 mg/kg (NCI-H1975 [7]): 82%; Tmax [8]: 4 h; Cmax [9]: 92.3 ng/mL
CCOCCOc1ccc(Nc2ncnc3cc(OCCOCC)c(NC(=O)/C=C/CN(C)C)cc23)cc1Cl | 0.34 | 6.17 | 13.7 | 2.52 | 
CCOCCOc1cc2ncnc(Nc3ccc(F)c(Cl)c3)c2cc1NC(=O)/C=C\Cl |  | 1.6 | 24 |  | 
CCOCCOc1cc2ncnc(Nc3ccc(OCC(F)(F)F)c(Cl)c3)c2cc1NC(=O)/C=C/CN(C)C | 2.9 | 107 | 64.1 | 2.55 | 
C=C(Cl)C(=O)Nc1cc2c(Nc3ccc(F)c(Cl)c3)ncnc2cc1OCCOCC | 33.2 | 37.1 | 369 | 3.71 | 
C=C(F)C(=O)Nc1cc2c(Nc3ccc(F)c(Cl)c3)ncnc2cc1OCCOCC | 0.53 | 72.5 | 54.5 | 58.2 | 
CN(C)C/C=C/C(=O)Nc1cc2c(Nc3ccc(F)c(Cl)c3)ncnc2cc1O[C@H]1CCOC1 [AFATINIB] |  |  |  |  | inhibition in vivo at 20 mg/kg (NCI-H1975 [10]): 67.6%
COC[C@H](C)Oc1cc2ncnc(Nc3ccc(F)c(Cl)c3)c2cc1NC(=O)/C=C/CN(C)C |  | 66.5 | 16.7 |  | 
COC[C@@H](C)Oc1cc2ncnc(Nc3ccc(F)c(Cl)c3)c2cc1NC(=O)/C=C/CN(C)C |  | 49.9 | 43 |  | 
COCCCOc1cc2ncnc(Nc3ccc(F)c(Cl)c3)c2cc1NC(=O)/C=C/CN(C)C | 0.29 |  |  |  | 
CCOCCOc1cc2ncnc(Nc3ccc(OCCOC)c(Cl)c3)c2cc1NC(=O)/C=C/CN(C)C | 3.43 | 7.3 | 20.1 | 1.65 | 
CCOCCOc1cc2ncnc(Nc3ccc(F)c(Cl)c3)c2cc1NC(=O)/C=C/CN(C)C.O=C(O)/C=C\C(=O)O |  |  |  |  | bioavailability [4]: 70%
CCOCCOc1cc2ncnc(Nc3ccc(F)c(Cl)c3)c2cc1NC(=O)/C=C/Cl |  | 7.43 | 289 | 14.9 | 
C#CC(=O)Nc1cc2c(Nc3ccc(F)c(Cl)c3)ncnc2cc1OCCOCC | 1.46 | 49.3 | 11.4 | 3.42 | 
CCOCCOc1cc2ncnc(Nc3ccc(F)c(Cl)c3)c2cc1NC(=O)/C=C/CN(C)C [listing 2 of 2 here] |  |  |  |  | TGI (NCI-H1975 [11]): Dose-dependent effect
CC(C)OCCOc1cc2ncnc(Nc3ccc(F)c(Cl)c3)c2cc1NC(=O)/C=C/CN(C)C | 0.55 |  | 5.86 |  | 

From ChEMBL document CHEMBL4330113, “Discovery of new quinazoline derivatives as irreversible dual EGFR/HER2 inhibitors and their anticancer activities - Part 1” (Bioorg Med Chem Lett, 2019)
